Test results: patent US10004701B2, “Methods and compositions for treating infection” (UNIVERSITY OF ROCHESTER, priority 2012, dated 2018)
pIC50: −log10 of the molar value. Values after ≈ are worked out from the molar mass of the structure shown. Like-named read-outs stand apart in the source and are kept apart here.

Columns and labels:
[1] = system: Enterococcus faecium 824-05; assay: MIC testing; assay type: cell-based; conditions: 82405
[2] = system: E. coli; assay: AK assay 384-well format, Prestwick library screening; assay type: cell-based, Escherichia coli; conditions: Escherichia coli, 3 h, 50 μM final drug concentration, cutoff for positive-scoring molecules 3-fold increase, read-out: AK-based Prestwick Library Screening Results, E. coli (increase in extracellular AK activity)
[3] = system: A. baumannii strain 98-37-09; assay: as above; assay type: cell-based, Acinetobacter baumannii; conditions: Acinetobacter baumannii, 983709, 3 h, 50 μM final drug concentration, cutoff for positive-scoring molecules 3-fold increase, read-out: AK-based Prestwick Library Screening Results, A. baumannii (increase in extracellular AK activity)
[4] = system: P. aeruginosa; assay: as above; assay type: cell-based, Pseudomonas aeruginosa; conditions: for fold induction at 50 µM: Pseudomonas aeruginosa, 3 h, 50 μM final drug concentration, cutoff for positive-scoring molecules 3-fold increase, read-out: AK-based Prestwick Library Screening Results, P. aeruginosa (increase in extracellular AK activity)
[5] = system: E. faecium; assay: as above; assay type: cell-based, Enterococcus faecium; conditions: for fold induction at 50 µM: Enterococcus faecium, 3 h, 50 μM final drug concentration, cutoff for positive-scoring molecules 3-fold increase, read-out: AK-based Prestwick Library Screening Results, E. faecium (increase in extracellular AK activity)
[6] = system: K. pneumoniae; assay: as above; assay type: cell-based, Klebsiella pneumoniae; conditions: Klebsiella pneumoniae, 3 h, 50 μM final drug concentration, cutoff for positive-scoring molecules 3-fold increase, read-out: AK-based Prestwick Library Screening Results, K. pneumoniae (increase in extracellular AK activity)
[7] = system: E. cloacae; assay: as above; assay type: cell-based, Enterobacter cloacae; conditions: Enterobacter cloacae, 3 h, 50 μM final drug concentration, cutoff for positive-scoring molecules 3-fold increase, read-out: AK-based Prestwick Library Screening Results, E. cloacae (increase in extracellular AK activity)
[8] = system: Pseudomonas aeruginosa PA01; assay: MIC testing; assay type: cell-based
[9] = system: S. aureus strain USA300-0114; assay: AK assay 384-well format, Prestwick library screening; assay type: cell-based, Staphylococcus aureus; conditions: Staphylococcus aureus, USA300, 3 h, 50 μM final drug concentration, cutoff for positive-scoring molecules 3-fold increase, read-out: AK-based Prestwick Library Screening Results, S. aureus (increase in extracellular AK activity)
[10] = system: Klebsiella pneumoniae cKP1; assay: MIC testing; assay type: cell-based
[11] = system: Escherichia coli 8295; assay: AK assay 96-well format; assay type: cell-based
[12] = system: Staphylococcus aureus; assay: MIC testing; assay type: cell-based
[13] = system: Escherichia coli 8295; assay: MIC testing; assay type: cell-based
[14] = system: Enterobacter cloacae PMD1001; assay: MIC testing; assay type: cell-based
[15] = system: Acinetobacter baumannii 98-37-09; assay: MIC testing; assay type: cell-based; conditions: 983709; Acinetobacter baumannii 98-37-09; read-out: MIC
[16] = system: Pseudomonas aeruginosa PA01; assay: AK assay 96-well format; assay type: cell-based
[17] = system: Enterobacter cloacae PMD1001; assay: AK assay 96-well format; assay type: cell-based
[18] = system: Klebsiella pneumoniae cKP1; assay: AK assay 96-well format; assay type: cell-based
[19] = target: T1, S. aureus DNA gyrase (Staphylococcus aureus, UniProt P0A0K8+P20831); assay: S. aureus DNA gyrase supercoiling assay (TopoGEN); assay type: biochemical
T1 construct: purchased TopoGEN
Description: Reactions were incubated at 37° C. for 30 min and then stopped by the addition of 10% SDS, filtered through 0.025 μm Millipore membrane filters in a 10 mM Tris-HCl buffer (pH 8), and electrophoresed in a 1% agarose TAE gel. Gels were stained with 0.5 μg/ml ethidium bromide and images were analyzed using densitometry (Image J, NIH).

[20] = system: S. aureus; assay: Minimum Inhibitory Concentration (MIC) testing, terfenadine study; assay type: cell-based; conditions: Staphylococcus aureus, 16 h
[21] = system: Enterococcus faecium 824-05; assay: AK assay 96-well format; assay type: cell-based
[22] = system: S. aureus SCV strain UAMS-1112; assay: Small-colony variant AK assay (with plating); assay type: cell-based, Staphylococcus aureus; conditions: S. aureus UAMS-1112; 1× or 10×MIC for 3 h
Description: Thirty-six-hour cultures of S. aureus strain UAMS-1112 were used to inoculate (1:100 dilution) 100 ml of fresh MH medium and grown at 37° C. on a rotary shaker at 225 rpm to an optical density (600 nm) of 0.1 to 0.2, corresponding to ˜1×10^6 CFU ml^−1. Cells were pelleted by centrifugation and resuspended in 2 ml of fresh MH medium. Ninety-eight microliters of MH medium containing 5×10^6 bacteria and 2 μl of the indicated antibiotic were added to individual wells of a white-walled, 96-well microtiter plate. Well components were mixed by pipetting and incubated at 37° C. for 3 h. The plate was equilibrated to room temperature for 30 min. Next, 100 μl of ToxiLight AK reagent was added to each well, followed by incubation at room temperature for 30 min, and luminescence was measured using a SpectraMax M5 plate reader.
SCV are slow-growing populations of bacterial species that have been hypothesized to cause latent or recurrent infections and are tolerant of standard antibiotic treatment regimens. Based on the aberrant SCV growth characteristics, typical growth-based HTS assays would be difficult to employ. Accordingly, the ability of the AK assay to identify agents that kill S. aureus SCV strain UAMS-1112 was tested. […].

[23] = Enterococcus faecium 824-05, read-out: MIC
[24] = Klebsiella pneumoniae cKP1, read-out: MIC
[25] = Staphylococcus aureus USA300-0114, read-out: MIC

T1 sequence (P0A0K8 whole entry): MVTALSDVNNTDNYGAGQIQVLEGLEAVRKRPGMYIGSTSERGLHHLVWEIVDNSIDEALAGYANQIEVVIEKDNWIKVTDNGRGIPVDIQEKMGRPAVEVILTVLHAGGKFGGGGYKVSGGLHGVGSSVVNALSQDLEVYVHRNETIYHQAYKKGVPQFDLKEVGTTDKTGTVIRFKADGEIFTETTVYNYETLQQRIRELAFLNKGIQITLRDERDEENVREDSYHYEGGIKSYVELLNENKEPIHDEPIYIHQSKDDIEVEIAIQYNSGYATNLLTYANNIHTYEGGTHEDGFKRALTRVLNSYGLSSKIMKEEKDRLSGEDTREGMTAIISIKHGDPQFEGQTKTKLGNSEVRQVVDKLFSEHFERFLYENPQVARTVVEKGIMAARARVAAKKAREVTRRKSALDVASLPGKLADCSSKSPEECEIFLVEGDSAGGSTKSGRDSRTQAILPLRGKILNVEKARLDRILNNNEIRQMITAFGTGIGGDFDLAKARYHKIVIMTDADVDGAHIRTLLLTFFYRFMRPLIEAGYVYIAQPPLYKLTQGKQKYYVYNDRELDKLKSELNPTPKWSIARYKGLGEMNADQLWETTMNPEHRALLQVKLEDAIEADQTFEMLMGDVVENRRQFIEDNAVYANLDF
T1 sequence (P20831 whole entry): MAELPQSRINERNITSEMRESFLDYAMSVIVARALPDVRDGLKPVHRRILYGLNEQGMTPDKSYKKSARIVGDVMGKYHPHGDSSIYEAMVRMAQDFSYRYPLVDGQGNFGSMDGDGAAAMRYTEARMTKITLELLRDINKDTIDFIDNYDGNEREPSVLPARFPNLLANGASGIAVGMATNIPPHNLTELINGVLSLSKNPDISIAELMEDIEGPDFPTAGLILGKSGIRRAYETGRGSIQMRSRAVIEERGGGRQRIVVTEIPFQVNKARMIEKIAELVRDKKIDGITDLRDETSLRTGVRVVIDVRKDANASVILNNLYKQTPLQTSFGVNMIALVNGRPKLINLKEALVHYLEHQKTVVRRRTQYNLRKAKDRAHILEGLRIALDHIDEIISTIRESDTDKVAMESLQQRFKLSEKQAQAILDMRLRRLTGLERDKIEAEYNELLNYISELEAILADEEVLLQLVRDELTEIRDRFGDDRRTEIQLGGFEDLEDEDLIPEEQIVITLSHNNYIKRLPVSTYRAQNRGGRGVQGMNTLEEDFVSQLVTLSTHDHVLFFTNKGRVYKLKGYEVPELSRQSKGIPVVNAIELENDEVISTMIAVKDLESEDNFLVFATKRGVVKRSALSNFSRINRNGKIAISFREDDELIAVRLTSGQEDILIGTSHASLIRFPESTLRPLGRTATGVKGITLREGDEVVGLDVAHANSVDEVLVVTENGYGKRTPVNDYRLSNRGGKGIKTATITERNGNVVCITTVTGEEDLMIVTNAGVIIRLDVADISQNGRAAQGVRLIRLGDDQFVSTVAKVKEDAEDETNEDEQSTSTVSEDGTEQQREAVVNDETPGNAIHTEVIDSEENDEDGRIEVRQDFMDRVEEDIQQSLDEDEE

CCCCCCCCNC(C)C(O)c1ccc(SC(C)C)cc1 (stereo not shown) [Suloctidil, suloctidil, reference compound]
MIC [1, 23]: 8 µg/mL (≈ 23.7 µM) | fold induction at 50 µM ([2]; planktonic E. coli): 1.9 | fold induction at 50 µM ([3]; planktonic A. baumannii): 4.1 | activity in primary and confirmatory AK screens ([4]; P. aeruginosa, 50 μM, cutoff 3-fold increase in AK): active | fold induction at 50 µM ([4]; planktonic P. aeruginosa): 6.8 | fold induction at 50 µM ([5]; planktonic E. faecium): 5.4 | fold induction at 50 µM ([6]; planktonic K. pneumoniae): 2.5 | fold induction at 50 µM ([7]; planktonic E. cloacae): 0.9 | MIC [8]: did not elicit an antimicrobial response | fold induction at 50 µM ([9]; planktonic S. aureus): 2

CCN(CC)CCOc1ccc(C(=C(Cl)c2ccccc2)c2ccccc2)cc1 [Clomiphene, clomiphene, reference compound]
MIC [1, 23]: 8 µg/mL (≈ 19.7 µM) | activity in AK Prestwick screen ([5]; E. faecium, 50 μM, cutoff 3-fold increase in AK): identified

CC1(C)S[C@@H]2[C@H](NC(=O)[C@H](N)c3ccccc3)C(=O)N2[C@H]1C(=O)O [Ampicillin, ampicillin]
MIC ([10]; Klebsiella pneumoniae, CKP1): > 256 µg/mL | MIC ([1]; Enterococcus faecium): > 256 µg/mL | Fold increase in AK signal ([11]; treatment 0.5×MIC): 50 fold | Fold increase in AK signal ([11]; treatment 1.0×MIC): 74 fold | MIC ([12]; Staphylococcus aureus): 2 µg/mL (≈ 5.72 µM) | MIC ([12]; Staphylococcus aureus, USA300): > 256 µg/mL | MIC [13]: 128 µg/mL (≈ 366 µM) | MIC [14]: > 256 µg/mL | MIC [8]: > 256 µg/mL | MIC [15]: 256 µg/mL (≈ 733 µM)

Cc1cc(NS(=O)(=O)c2ccc(N)cc2)no1 [Sulfamethoxazole, sulfamethoxazole]
MIC [10, 24]: > 256 µg/mL | MIC [1, 23]: > 256 µg/mL | MIC ([12]; Staphylococcus aureus): 2 µg/mL (≈ 7.9 µM) | MIC [12, 25]: > 256 µg/mL | MIC ([13]; read-out: MIC): > 256 µg/mL | fold induction at 50 µM ([2]; 384-well format): 0.7 | fold induction at 50 µM ([3]; 384-well format): 1.3 | fold induction at 50 µM ([4]; 384-well format): 0.7 | fold induction at 50 µM ([5]; 384-well format): 1 | MIC ([14]; read-out: MIC): > 256 µg/mL | fold induction at 50 µM ([6]; 384-well format): 0.6 | fold induction at 50 µM ([7]; 384-well format): 0.7 | MIC ([8]; read-out: MIC): 256 µg/mL (≈ 1010 µM) | MIC [15]: 8 µg/mL (≈ 31.6 µM) | fold induction at 50 µM ([9]; 384-well format): 0.7

CO/N=C(\C(=O)N[C@@H]1C(=O)N2C(C(=O)O)=C(CSc3nc(=O)c(=O)[nH]n3C)CS[C@H]12)c1csc(N)n1 [Ceftriaxone, ceftriaxone]
MIC [10, 24]: 2 µg/mL (≈ 3.61 µM) | MIC [1, 23]: > 256 µg/mL | Fold increase in AK signal ([11]; treatment 0.5×MIC): 51 fold | Fold increase in AK signal ([11]; treatment 1.0×MIC): 76 fold | MIC ([12]; Staphylococcus aureus): 2 µg/mL (≈ 3.61 µM) | MIC [12, 25]: > 256 µg/mL | Fold increase in AK signal ([16]; treatment 0.5×MIC): 2 fold | Fold increase in AK signal ([16]; treatment 1.0×MIC): 14 fold | MIC ([13]; read-out: MIC): 2 µg/mL (≈ 3.61 µM) | Fold increase in AK signal ([17]; treatment 0.5×MIC): 20 fold | Fold increase in AK signal ([17]; treatment 1.0×MIC): 17 fold | MIC ([14]; read-out: MIC): 2 µg/mL (≈ 3.61 µM) | Fold increase in AK signal ([18]; treatment 0.5×MIC): 50 fold | Fold increase in AK signal ([18]; treatment 1.0×MIC): 55 fold | MIC ([8]; read-out: MIC): 4 µg/mL (≈ 7.21 µM) | MIC [15]: 8 µg/mL (≈ 14.4 µM)

NC[C@H]1O[C@H](O[C@H]2[C@H](O)[C@@H](O[C@H]3O[C@H](CO)[C@@H](O)[C@H](N)[C@H]3O)[C@H](N)C[C@@H]2N)[C@H](O)[C@@H](O)[C@@H]1O [Kanamycin, kanamycin]
MIC [10, 24]: 2 µg/mL (≈ 4.13 µM) | MIC ([1]; Enterococcus faecium): > 256 µg/mL | Fold increase in AK signal ([11]; treatment 0.5×MIC): 55 fold | Fold increase in AK signal ([11]; treatment 1.0×MIC): 70 fold | MIC ([12]; Staphylococcus aureus): 16 µg/mL (≈ 33 µM) | MIC ([12]; Staphylococcus aureus, USA300): > 256 µg/mL | MIC ([13]; read-out: MIC): 32 µg/mL (≈ 66 µM) | Fold increase in AK signal ([17]; treatment 0.5×MIC): 1 fold | Fold increase in AK signal ([17]; treatment 1.0×MIC): 1 fold | MIC ([14]; read-out: MIC): 2 µg/mL (≈ 4.13 µM) | Fold increase in AK signal ([18]; treatment 0.5×MIC): 1 fold | Fold increase in AK signal ([18]; treatment 1.0×MIC): 1 fold | MIC ([8]; read-out: MIC): 256 µg/mL (≈ 528 µM) | MIC [15]: 2 µg/mL (≈ 4.13 µM)

CC(C)(C)c1cccc(CCN2CCC(C(O)(c3ccccc3)c3ccccc3)CC2)c1 [Compound 39, (1-(3-(Tert-butyl)phenethyl)piperidin-4-yl)diphenylmethanol]
pIC50 [19]: 3.66 | MIC [20]: 16 µg/mL (≈ 37.4 µM)

OC(CCCN1CCC(C(O)(c2ccccc2)c2ccccc2)CC1)c1ccccc1 (stereo not shown) [Compound 6, 4-(4-(hydroxydiphenylmethyl)piperidin-1-yl)-1-phenylbutan-1-ol]
pIC50 [19]: < 2.92 | MIC [20]: 256 µg/mL (≈ 616 µM)

CC(=O)NC[C@H]1CN(c2ccc(N3CCOCC3)c(F)c2)C(=O)O1 [Linezolid, linezolid]
MIC ([10]; Klebsiella pneumoniae, CKP1): > 256 µg/mL | MIC [1, 23]: 16 µg/mL (≈ 47.4 µM) | MIC ([12]; Staphylococcus aureus): 2 µg/mL (≈ 5.93 µM) | MIC [12, 25]: 2 µg/mL (≈ 5.93 µM) | Fold increase in AK signal ([21]; treatment 0.5×MIC): 2 fold | Fold increase in AK signal ([21]; treatment 1.0×MIC): 2 fold | MIC [13]: > 256 µg/mL | MIC [14]: > 256 µg/mL | MIC [8]: > 256 µg/mL | MIC [15]: 256 µg/mL (≈ 759 µM)

C[C@@H](O)[C@H]1C(=O)N2C(C(=O)O)=C(S[C@@H]3CN[C@H](C(=O)N(C)C)C3)[C@H](C)[C@H]12 [Meropenem, meropenem]
MIC [10, 24]: 2 µg/mL (≈ 5.22 µM) | MIC ([1]; Enterococcus faecium): > 256 µg/mL | Fold increase in AK signal ([11]; treatment 0.5×MIC): 60 fold | Fold increase in AK signal ([11]; treatment 1.0×MIC): 85 fold | MIC ([12]; Staphylococcus aureus): 2 µg/mL (≈ 5.22 µM) | MIC [12, 25]: 4 µg/mL (≈ 10.4 µM) | Fold increase in AK signal ([16]; treatment 0.5×MIC): 45 fold | Fold increase in AK signal ([16]; treatment 1.0×MIC): 39 fold | MIC ([13]; read-out: MIC): 2 µg/mL (≈ 5.22 µM) | Fold increase in AK signal ([17]; treatment 0.5×MIC): 99 fold | Fold increase in AK signal ([17]; treatment 1.0×MIC): 296 fold | MIC ([14]; read-out: MIC): 2 µg/mL (≈ 5.22 µM) | decrease in SCV viability (plating) [22]: 0.5 log | increase in AK signal compared to mock-treated cells [22]: 2.5 fold | Fold increase in AK signal ([18]; treatment 1.0×MIC): 220 fold | MIC ([8]; read-out: MIC): 2 µg/mL (≈ 5.22 µM) | MIC [15]: 2 µg/mL (≈ 5.22 µM)

CC(C)(C)c1ccc(CCN2CCC(C(O)(c3ccccc3)c3ccccc3)CC2)cn1 [Compound 43, (1-(2-(6-(Tert-butyl)pyridin-3-yl)ethyl)piperidin-4-yl)diphenylmethanol]
pIC50 [19]: < 3.11 | MIC [20]: 64 µg/mL (≈ 149 µM)
